# Assay results: PMC11087982, “In vitro and in vivo activities of a trithiolato-diRuthenium complex conjugated with sulfadoxine against the apicomplexan parasite Toxoplasma gondii” (International Journal for Parasitology: Drugs and Drug …, 2024)
# “Also recorded” adds a separate entry of the source. Like-named read-outs stand apart in the source and are kept apart here.
# Key:
# [1] = system: T. gondii β-gal tachyzoites; conditions: cited from earlier work
# T. gondii ShSp1 oocysts = assay: In vivo efficacy in CD1 mice orally infected with T. gondii ShSp1 oocysts (qPCR parasite load)
# Description: Female CD1 mice, 6 weeks of age, were purchased from Charles River (Sulzberg, Germany). They were housed in temperature-controlled animal facilities and were randomly distributed into 4 groups (8 mice/group, with 4 mice per cage), and food and water ad libitum. At the age of 8 weeks, mice were experimentally infected by peroral application of 120 TgShSp1 (type II) oocysts ([Imhof et al., 2021]). Placebo and RU-SDX treatments were started at 3 days p. i., with mice being treated orally by gavage. Group 1 (placebo control) received 100 μl corn oil supplemented with 10% DMSO, while group 2 (treatment group) was administered 5 mg/kg RU-SDX solubilized in 100 μl corn oil/10 % DMSO. These treatments were repeated on days 5, 7, 9 and 11 p. i. During the entire experiment mice were monitored for potential health issues at least twice per day. All mice were sacrificed at 30 days p. i. Brain, eyes, heart, and liver were collected and stored at −20 °C for subsequent DNA extraction and quantification of T. gondii load by quantitative PCR (qPCR).
# Genomic DNA was extracted from the collected samples using the NucleoSpin DNA RapidLyze Kit (Macherey-Nagel, Oensingen, Switzerland) and DNA concentrations were quantified by the QuantiFluor double-stranded DNA (dsDNA) system (Promega, Madison, WI, USA) as previously described ([Imhof et al., 2021]). DNA concentrations were adjusted to 5 ng/μl, and qPCR reactions were performed in a final volume of 10 μl containing 1x SensiFast master mix (Bioline, Meridian Bioscience), 0.5 μM of reverse and forward primers, 0.1 μM of 529rpeQ-P probe, 0.3 mM dUTP, and one unit of heat-labile Uracil DNA Glycosylase (UDG) ([Hänggeli et al., 2022]). Amplification was performed in the Bio-Rad CFX 96 QPCR instRUment (Biorad) using the following thermal profile: (1) initial incubation of 10 min at 42 °C, followed by (2) denaturation step of 5 min at 95 °C and (3) 50 cycles of two-step amplification (10 s at 95 °C and 20 s at 62 °C). For quantification, a standard curve was made based on a 10-fold serial dilution of DNA from T. gondii, equivalent to tachyzoite numbers ranging from 1 × 10^4 to 1 per 4 μl. The parasite load was expressed as number of tachyzoites per 20 ng of DNA. Statistical analyses were performed using GraphPad Prism version 5.0 (GraphPad Software, La Jolla, CA, USA). Comparisons of the parasite burdens between groups were conducted with the non-parametric Kruskal-Wallis test, followed by the Mann-Whitney-U test.
# [2] = Formulation of the compound for oral gavage (precipitation); assay type: physicochemical; conditions: compared with 5 mg/kg in corn oil containing 10% DMSO; data not shown
# Experimental: A preliminary in vivo study was conducted in outbred CD1 mice that were experimentally infected with TgShSp1 oocysts.
# T. gondii-infected HFF = assay: TMRE uptake assay (mitochondrial membrane potential), T. gondii-infected HFF; assay type: cell-based, Toxoplasma gondii Me49 in human HFF; conditions: 0.5 μM, 3.5 h
# Experimental: (§1) 5 × 10^5 HFF were seeded into T25 culture flasks in DMEM complete medium and maintained in culture for 72 h to reach ⁓80% confluency. HFF monolayers were left either non-infected or were infected with 2 × 10^5 T. gondii Me49 tachyzoites. After another 48 h, the medium was removed from infected and non-infected T25 flasks and was replaced either by medium containing 0.5 μM RU-SDX, or in the case of non-treated controls, medium containing 0.05% DMSO. As positive controls, the two mitochondrial uncouplers FCCP and CCCP were applied at a concentration of 80 and 50 μM, respectively. PYR was applied at 0.5 μM as a control drug not affecting the MMP, and RU-adenine, used as a conjugate shown earlier to impact on the mitochondrial ultrastructure in T. gondii ([Anghel et al., 2021]; [Desiatkina et al., 2022b]), was also tested at 0.5 μM ([Anghel et al., 2021]; [Desiatkina et al., 2022b]). […] Fluorescence was measured using a Hidex Sense microplate reader instrument ([…]) with the excitation wavelength 544/20 nm and emitted light collected at 590/20 nm. Value from wells belonging to the same experimental condition were summed and the mean TMRE uptake in each condition was calculated from three biological replicates.
# Non-infected HFF = assay: TMRE uptake assay (mitochondrial membrane potential), non-infected HFF; assay type: cell-based, human; conditions: 0.5 μM, 3.5 h
# Experimental: as §1
# [3] = system: T. gondii Me49 tachyzoites; assay: Long-term treatment of infected HFF to test static or cidal effect; assay type: cell-based, Toxoplasma gondii; conditions: 0.5 μM
# Experimental: On day 0, the HFF monolayers were infected with 5 × 10^5 T. gondii Me49 tachyzoites. At 4 h post infection (p.i.) the medium was removed, flasks were washed twice with sterile PBS and fresh medium containing either RU-SDX at 0.25 μM or 0.5 μM, or DMSO (0.05%) as a negative control, were added. Treatments were applied during 3 and 6 days and cultures were maintained in normal DMEM complete media and examined light microscopically daily. After drug removal, flasks were also monitored microscopically daily for one week.
smiles,measurement,setting,value
CC(C)(C)c1ccc(C[S-])cc1.CC(C)(C)c1ccc(C[S-])cc1.COc1ncnc(NS(=O)(=O)c2ccc(NC(=O)Cc3ccc([S-])cc3)cc2)c1OC.Cc1ccc(C(C)C)cc1.Cc1ccc(C(C)C)cc1.[Cl-].[Ru+2].[Ru+2] [RU-SDX],proliferation (% of control ± SD),"[1]; 1 μM, ref Desiatkina et al., 2021","^b^, ^∗∗∗11 ± 1%"
same,proliferation (% of control ± SD),"[1]; 1.1 μM, ref Desiatkina et al., 2021","^b^,*116 ± 1%"
same,proliferation (% of control ± SD),"[1]; 1.25 μM, ref Desiatkina et al., 2021, Păunescu et al.","^b^, ^a0 ± 0%"
same,cerebral parasite load compared to placebo control group,"T. gondii ShSp1 oocysts; 5 mg/kg oral gavage, 5 treatments from day 3 p.i., brain at 30 days p.i., P = 0.37",did not result in any reduction
same,parasite load in eyes compared to placebo control group,"T. gondii ShSp1 oocysts; 5 mg/kg oral gavage, 5 treatments from day 3 p.i., eyes at 30 days p.i.",significantly reduced
same,parasite load in the heart compared to placebo control group,"T. gondii ShSp1 oocysts; 5 mg/kg oral gavage, 5 treatments from day 3 p.i., heart at 30 days p.i.",significantly reduced
same,toxicity by clinical signs in treated mice,"T. gondii ShSp1 oocysts; 5 mg/kg oral in corn oil/10% DMSO, 5 treatments",not toxic
same,"behaviour at higher concentrations or in other vehicles (PBS ± DMSO, H2O ± DMSO, H2O + propane-1,2-diol)",[2],precipitation
same,TMRE fluorescence intensity / TMRE uptake (percentage of non-treated control = 100%),T. gondii-infected HFF,130%
same,TMRE fluorescence intensity / TMRE uptake (percentage of non-treated control = 100%),Non-infected HFF,140%
same,parasiticidal or parasitostatic action in vitro,[3]; 3 and 6 days treatment,parasitostatic but not parasiticidal; also recorded: did not act parasiticidal
same,tachyzoite re-emergence after removal of the drug,"[3]; 6 days of continuous treatment, then culture without compound",≤ 4 days
